{"source": "the supplement of paper PMC10307832", "experiment_in_all_cases": "relative viability (nuclei count vs DMSO), 5 days (fraction); higher = more cells survive", "key": {"BEN": {"test_system": "BEN", "outline": "(§1)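 Relative viability was taken as the ratio of nuclei in treated wells to nuclei in vehicle wells. Lung cancer cell lines in 1536-well plates received compounds by pin tool one day after seeding, either one drug alone or a fixed anchor-drug dose plus five library-drug doses (not always all listed) in √10 steps. Nuclei were counted on 4× images after 5 days of treatment, and values are medians of duplicate plates.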"}, "NCI-H460": {"test_system": "NCI-H460", "outline": "as §1"}, "NCI-H838": {"test_system": "NCI-H838", "outline": "as §1"}, "LOU-NH91": {"test_system": "LOU-NH91", "outline": "as §1"}, "NCI-H1437": {"test_system": "NCI-H1437", "outline": "as §1"}, "NCI-H1651": {"test_system": "NCI-H1651", "outline": "as §1"}, "NCI-H1975": {"test_system": "NCI-H1975", "outline": "as §1"}, "NCI-H1734": {"test_system": "NCI-H1734", "outline": "as §1"}, "NCI-H1563": {"test_system": "NCI-H1563", "outline": "as §1"}, "HCC-366": {"test_system": "HCC-366", "outline": "as §1"}, "COR-L23": {"test_system": "COR-L23", "outline": "as §1"}, "NCI-H2023": {"test_system": "NCI-H2023", "outline": "as §1"}, "SK-LU-1": {"test_system": "SK-LU-1", "outline": "as §1"}, "NCI-H358": {"test_system": "NCI-H358", "outline": "as §1"}, "NCI-H1650": {"test_system": "NCI-H1650", "outline": "as §1"}, "NCI-H1355": {"test_system": "NCI-H1355", "outline": "as §1"}, "NCI-H441": {"test_system": "NCI-H441", "outline": "as §1"}, "LU99A": {"test_system": "LU99A", "outline": "as §1"}, "NCI-H2085": {"test_system": "NCI-H2085", "outline": "as §1"}, "CAL-12T": {"test_system": "CAL-12T", "outline": "as §1"}}}
{"smiles": "CC(=O)O[C@@]12CO[C@@H]1C[C@H](O)[C@@]1(C)C(=O)[C@H](O)C3=C(C)[C@@H](OC(=O)[C@H](O)[C@@H](NC(=O)OC(C)(C)C)c4ccccc4)C[C@@](O)([C@@H](OC(=O)c4ccccc4)[C@H]21)C3(C)C", "note": "[Docetaxel] + C[C@@H](Oc1cc(-c2cnn(C3CCNCC3)c2)cnc1N)c1c(Cl)ccc(F)c1Cl [Crizotinib] (partner 1 µM)", "values": [{"measurement": "relative viability", "setting": "BEN; first compound 0.0002 µM", "value": 0.859}, {"measurement": "relative viability", "setting": "BEN; first compound 0.000632 µM", "value": 0.809}, {"measurement": "relative viability", "setting": "BEN; first compound 0.002 µM", "value": 0.42}, {"measurement": "relative viability", "setting": "BEN; first compound 0.006325 µM", "value": 0.222}, {"measurement": "relative viability", "setting": "NCI-H460; first compound 0.0002 µM", "value": 0.73}, {"measurement": "relative viability", "setting": "NCI-H460; first compound 0.000632 µM", "value": 0.673}, {"measurement": "relative viability", "setting": "NCI-H460; first compound 0.002 µM", "value": 0.0086}, {"measurement": "relative viability", "setting": "NCI-H460; first compound 0.006325 µM", "value": 0.0137}, {"measurement": "relative viability", "setting": "NCI-H460; first compound 0.02 µM", "value": 0.0093}, {"measurement": "relative viability", "setting": "NCI-H838; first compound 0.0002 µM", "value": 0.856}, {"measurement": "relative viability", "setting": "NCI-H838; first compound 0.000632 µM", "value": 0.7}, {"measurement": "relative viability", "setting": "NCI-H838; first compound 0.002 µM", "value": 0.155}, {"measurement": "relative viability", "setting": "NCI-H838; first compound 0.006325 µM", "value": 0.201}, {"measurement": "relative viability", "setting": "NCI-H838; first compound 0.02 µM", "value": 0.124}, {"measurement": "relative viability", "setting": "LOU-NH91; first compound 0.0002 µM", "value": 0.734}, {"measurement": "relative viability", "setting": "LOU-NH91; first compound 0.000632 µM", "value": 0.664}, {"measurement": "relative viability", "setting": "LOU-NH91; first compound 0.002 µM", "value": 0.508}, {"measurement": "relative viability", "setting": "LOU-NH91; first compound 0.006325 µM", "value": 0.373}, {"measurement": "relative viability", "setting": "LOU-NH91; first compound 0.02 µM", "value": 0.362}, {"measurement": "relative viability", "setting": "NCI-H1437; first compound 0.0002 µM", "value": 0.901}, {"measurement": "relative viability", "setting": "NCI-H1437; first compound 0.000632 µM", "value": 0.878}, {"measurement": "relative viability", "setting": "NCI-H1437; first compound 0.002 µM", "value": 0.197}, {"measurement": "relative viability", "setting": "NCI-H1437; first compound 0.006325 µM", "value": 0.113}, {"measurement": "relative viability", "setting": "NCI-H1437; first compound 0.02 µM", "value": 0.11}, {"measurement": "relative viability", "setting": "NCI-H1651; first compound 0.0002 µM", "value": 0.835}, {"measurement": "relative viability", "setting": "NCI-H1651; first compound 0.000632 µM", "value": 0.876}, {"measurement": "relative viability", "setting": "NCI-H1651; first compound 0.002 µM", "value": 0.612}, {"measurement": "relative viability", "setting": "NCI-H1651; first compound 0.006325 µM", "value": 0.168}, {"measurement": "relative viability", "setting": "NCI-H1651; first compound 0.02 µM", "value": 0.167}, {"measurement": "relative viability", "setting": "NCI-H1975; first compound 0.0002 µM", "value": 0.861}, {"measurement": "relative viability", "setting": "NCI-H1975; first compound 0.000632 µM", "value": 0.483}, {"measurement": "relative viability", "setting": "NCI-H1975; first compound 0.002 µM", "value": 0.23}, {"measurement": "relative viability", "setting": "NCI-H1975; first compound 0.006325 µM", "value": 0.192}, {"measurement": "relative viability", "setting": "NCI-H1975; first compound 0.02 µM", "value": 0.142}, {"measurement": "relative viability", "setting": "NCI-H1734; first compound 0.0002 µM", "value": 0.498}, {"measurement": "relative viability", "setting": "NCI-H1734; first compound 0.000632 µM", "value": 0.576}, {"measurement": "relative viability", "setting": "NCI-H1734; first compound 0.002 µM", "value": 0.362}, {"measurement": "relative viability", "setting": "NCI-H1734; first compound 0.006325 µM", "value": 0.298}, {"measurement": "relative viability", "setting": "NCI-H1734; first compound 0.02 µM", "value": 0.246}, {"measurement": "relative viability", "setting": "NCI-H1563; first compound 0.0002 µM", "value": 0.829}, {"measurement": "relative viability", "setting": "NCI-H1563; first compound 0.000632 µM", "value": 0.926}, {"measurement": "relative viability", "setting": "NCI-H1563; first compound 0.002 µM", "value": 0.928}, {"measurement": "relative viability", "setting": "NCI-H1563; first compound 0.006325 µM", "value": 0.799}, {"measurement": "relative viability", "setting": "NCI-H1563; first compound 0.02 µM", "value": 0.77}, {"measurement": "relative viability", "setting": "HCC-366; first compound 0.0002 µM", "value": 0.426}, {"measurement": "relative viability", "setting": "HCC-366; first compound 0.000632 µM", "value": 0.0953}, {"measurement": "relative viability", "setting": "HCC-366; first compound 0.002 µM", "value": 0.0204}, {"measurement": "relative viability", "setting": "HCC-366; first compound 0.006325 µM", "value": 0.0165}, {"measurement": "relative viability", "setting": "HCC-366; first compound 0.02 µM", "value": 0.0108}, {"measurement": "relative viability", "setting": "COR-L23; first compound 0.0002 µM", "value": 0.536}, {"measurement": "relative viability", "setting": "COR-L23; first compound 0.000632 µM", "value": 0.483}, {"measurement": "relative viability", "setting": "COR-L23; first compound 0.002 µM", "value": 0.111}, {"measurement": "relative viability", "setting": "COR-L23; first compound 0.006325 µM", "value": 0.132}, {"measurement": "relative viability", "setting": "COR-L23; first compound 0.02 µM", "value": 0.0806}, {"measurement": "relative viability", "setting": "NCI-H2023; first compound 0.0002 µM", "value": 0.587}, {"measurement": "relative viability", "setting": "NCI-H2023; first compound 0.000632 µM", "value": 0.451}, {"measurement": "relative viability", "setting": "NCI-H2023; first compound 0.002 µM", "value": 0.123}, {"measurement": "relative viability", "setting": "NCI-H2023; first compound 0.006325 µM", "value": 0.096}, {"measurement": "relative viability", "setting": "NCI-H2023; first compound 0.02 µM", "value": 0.0789}, {"measurement": "relative viability", "setting": "SK-LU-1; first compound 0.0002 µM", "value": 0.692}, {"measurement": "relative viability", "setting": "SK-LU-1; first compound 0.000632 µM", "value": 0.567}, {"measurement": "relative viability", "setting": "SK-LU-1; first compound 0.002 µM", "value": 0.379}, {"measurement": "relative viability", "setting": "SK-LU-1; first compound 0.006325 µM", "value": 0.249}, {"measurement": "relative viability", "setting": "SK-LU-1; first compound 0.02 µM", "value": 0.272}, {"measurement": "relative viability", "setting": "NCI-H358; first compound 0.0002 µM", "value": 0.383}, {"measurement": "relative viability", "setting": "NCI-H358; first compound 0.000632 µM", "value": 0.342}, {"measurement": "relative viability", "setting": "NCI-H358; first compound 0.002 µM", "value": 0.16}, {"measurement": "relative viability", "setting": "NCI-H358; first compound 0.02 µM", "value": 0.116}, {"measurement": "relative viability", "setting": "NCI-H1650; first compound 0.0002 µM", "value": 0.906}, {"measurement": "relative viability", "setting": "NCI-H1650; first compound 0.000632 µM", "value": 0.398}, {"measurement": "relative viability", "setting": "NCI-H1650; first compound 0.002 µM", "value": 0.206}, {"measurement": "relative viability", "setting": "NCI-H1650; first compound 0.006325 µM", "value": 0.185}, {"measurement": "relative viability", "setting": "NCI-H1650; first compound 0.02 µM", "value": 0.141}, {"measurement": "relative viability", "setting": "NCI-H1355; first compound 0.0002 µM", "value": 1.01}, {"measurement": "relative viability", "setting": "NCI-H1355; first compound 0.000632 µM", "value": 0.893}, {"measurement": "relative viability", "setting": "NCI-H1355; first compound 0.002 µM", "value": 0.456}, {"measurement": "relative viability", "setting": "NCI-H1355; first compound 0.006325 µM", "value": 0.241}, {"measurement": "relative viability", "setting": "NCI-H1355; first compound 0.02 µM", "value": 0.198}, {"measurement": "relative viability", "setting": "NCI-H441; first compound 0.0002 µM", "value": 0.802}, {"measurement": "relative viability", "setting": "NCI-H441; first compound 0.000632 µM", "value": 0.472}, {"measurement": "relative viability", "setting": "NCI-H441; first compound 0.002 µM", "value": 0.29}, {"measurement": "relative viability", "setting": "NCI-H441; first compound 0.006325 µM", "value": 0.193}, {"measurement": "relative viability", "setting": "NCI-H441; first compound 0.02 µM", "value": 0.181}, {"measurement": "relative viability", "setting": "LU99A; first compound 0.0002 µM", "value": 0.522}, {"measurement": "relative viability", "setting": "LU99A; first compound 0.000632 µM", "value": 0.401}, {"measurement": "relative viability", "setting": "LU99A; first compound 0.002 µM", "value": 0.367}, {"measurement": "relative viability", "setting": "LU99A; first compound 0.006325 µM", "value": 0.278}, {"measurement": "relative viability", "setting": "LU99A; first compound 0.02 µM", "value": 0.196}, {"measurement": "relative viability", "setting": "NCI-H2085; first compound 0.0002 µM", "value": 0.63}, {"measurement": "relative viability", "setting": "NCI-H2085; first compound 0.000632 µM", "value": 0.706}, {"measurement": "relative viability", "setting": "NCI-H2085; first compound 0.002 µM", "value": 0.737}, {"measurement": "relative viability", "setting": "NCI-H2085; first compound 0.006325 µM", "value": 0.415}, {"measurement": "relative viability", "setting": "NCI-H2085; first compound 0.02 µM", "value": 0.317}, {"measurement": "relative viability", "setting": "CAL-12T; first compound 0.0002 µM", "value": 0.717}, {"measurement": "relative viability", "setting": "CAL-12T; first compound 0.000632 µM", "value": 0.341}, {"measurement": "relative viability", "setting": "CAL-12T; first compound 0.002 µM", "value": 0.146}, {"measurement": "relative viability", "setting": "CAL-12T; first compound 0.02 µM", "value": 0.096}]}
